The values below come from patent US5843399A, “DTPA monoamides for MRI” (Schering Aktiengesellschaft, priority 1990, dated 1998).

The subject of assay [1] is liver / Brown-Pearce tumor. Kind of assay: In vivo NMR diagnosis, intravenous, liver with Brown-Pearce tumor. The settings on record: i.v., 0.1 mmol of Gd/kg, 60 minutes after administration. Also on record: species or system rat.
Experimental: (§1) A cell suspension of the Brown-Pearce tumor was injected in the liver in a test animal (rat, strain lew/mol, female, 155 g) two weeks before the test. In the method used, about 2 weeks were required until the tumor had reached the size of 0.5-1 cm^3 desired for the test.
(§2) For the test, the animal was anesthetized (Rompun+Ketavet) and then a catheter was placed in the caudal vein for the administration of the contrast medium.
The imaging took place in an MRI experimental device of the General Electric company (field strength 2 teslas). The first image was made without contrast media with a T1 -weighted spin echo sequence (TR=400 msec, TE=20 msec, layer thickness 3 mm). […] 2 was taken 60 minutes after the administration of the contrast medium under conditions which were otherwise the same as image no.
A further assay relates to stomach. The settings on record: i.v., 0.1 mmol of Gd/kg, 60 minutes after administration (image no. 2).
A further assay has as its system liver. The settings on record: p.o., 0.5 mmol of Gd/kg.
The next assay relates to human serum albumin. Description: Association with human serum albumin in aqueous solution. The format is binding.

Experimental for stomach: as §1, §2
The imaging took place in an MRI experimental device of the General Electric company (field strength 2 teslas). The first image was made without contrast media with a T1 -weighted spin echo sequence (TR=400 msec, TE=20 msec, layer thickness 3 mm). […] Then, the administration of the contrast medium [gadolinium complex of 3,6-bis(carboxymethyl)-9-(10-carboxydecylcarbamoylmethyl)-3,6,9-triazaundecanedioic acid, Example 1b)] took place through the vein catheter with a dose of 0.1 mmol of Gd/kg (concentration of the solution of 0.05 mmol/ml in 0.9% NaCl, i.e. a clinically usual dose, e.g., in the case of the commercial preparation Magnevist®). […] 2 was taken 60 minutes after the administration of the contrast medium under conditions which were otherwise the same as image no.

In the case of `O=C(O)CCCCCCCCCCNC(=O)CN(CCN(CCN(CC(=O)O)CC(=O)O)CC(=O)O)CC(=O)O.[Gd]` [Example 1b, Gadolinium complex of 3,6-bis(carboxymethyl)-9-(10-carboxydecylcarbamoylmethyl)-3,6,9-triazaundecanedioic acid], in assay [1], the “concentration of the contrast medium in liver and tumor” value is reported as “concentrated in the liver to a great extent, but, not in the tumor”. Moreover, the “appearance of the liver parenchyma in MRI image” value in assay [1] (2 teslas, T1-weighted spin echo) is on record as “very bright”. The “appearance of the tumor in MRI image” value in assay [1] (Brown-Pearce tumor in liver) is “considerably darker in comparison with the surrounding liver tissue”. Moreover, in the assay with stomach, the “enhancement of the stomach” value is “very strong enhancement of the stomach”. Besides, the “signal in the liver, 45 minutes” value in the assay on liver (45 minutes after administration (image 3)) is on record as “a slight increase in the signal in the liver”. In addition, the “enhancement in the liver, 180 minutes” value with liver (180 minutes after administration (image 4)) is “A marked enhancement in the liver”.

As for `CCCCCCC(CCCCCCCCCCC(=O)O)NC(=O)CN(CCN(CCN(CC(=O)O)CC(=O)O)CC(=O)O)CC(=O)O.[Gd]` (stereo not shown) [Example 4b, Gadolinium complex of 3,6-bis(carboxymethyl)-9-(11-carboxy-1-n-hexyl-undecylcarbamoylmethyl)-3,6,9-triazaundecanedioic acid], the “association with human serum albumin” value with human serum albumin was “forms associates in aqueous solution with human serum albumin”.
